From patent US7435846B2, “Absorption and bioavailability of carotenoids, formulations and applications” (Industrial Organica, S.A. De C.V., priority 2006, dated 2008)

Parameters: species or system human
Details: in vivo
Description: Ten (10) healthy non smoking students (ranging in age from 22-27 years), were subjected to the following two treatments:
(A) Four (4) weeks of ingesting one gelatin capsule at their noonday meal, containing 20 mg of crystalline lutein dispersed in soybean oil and after a 12 hours fast (overnight) blood samples were taken early the next morning for plasma analysis.
(B) After a two (2) week interval washout period, the same group of subjects were given, during a period of four (4) weeks, a gelatin capsule containing a micellar dispersion of lutein diacetate (prepared as described in example 3) in soybean oil. Each capsule contained 24.2 mg of lutein diacetate and was ingested at lunch time. After a twelve (12) hour fast, blood samples were collected in the early morning of the next day for plasma analysis.

**Q.** Which “ratio of the average absorption of the lutein diacetate divided by the average absorption of the free lutein” value does the source give for lutein diacetate here?
**A.** 2.81 times
